{"source": "patent US20200253907A1", "about": "“Compositions and Methods for Treating Neurodegenerative Diseases” (The Regents of the University of California, priority 2017, published 2020)", "key": {"GMC101 C. elegans strain": {"tested_on": "GMC101 C. elegans strain", "assay": "Paralysis assay in GMC101 C. elegans model of Alzheimer's disease", "assay_type": "in vivo", "conditions": "for GMC101 paralysis: 4 mM, FIG. 3; for paralysis caused by Aβ: single agent, FIG. 4 (alanine 1-8 mM), FIG. 5 (KIC 2-32 mM)", "description": "To investigate the effects of small molecules in a C. elegans model of Alzheimer's disease, the GMC101 C. elegans strain, developed by Gawain McColl at the University of Melbourne, Australia, was used. The GMC101 C. elegans strain expresses the full length human amyloid beta 1-42 protein in the body wall muscle cells, leading to a fully penetrant age-progressive paralysis. These worms were first age-synchronized by performing an egg prep (mixed <100 gravid worms in 70 μl M9 buffer, 25 μl bleach and 5 μl 10 N NaOH). […] All worms were transferred to fresh plates on Day 5."}, "[1]": {"tested_on": "differentiated PC-12 cells", "assay": "Amyloid-beta induced cell death in differentiated PC-12 cells", "assay_type": "cell-based", "conditions": "200 μM, pretreated 2 hours before Aβ42 or Aβ25-35; 24-hour incubation; control cells 48.5±1.8%; FIG. 16", "from_the_text": "Overnight after seeding, cells were differentiated with NGF in 0.5% FCS, RPMI 1640 medium for 7 days."}}, "note": "“Also recorded” adds a separate entry of the source."}
{"smiles": "CC[C@H](O)C(=O)O", "note": "[2-HB, 2-hydroxybutyrate]", "values": [{"measurement": "GMC101 paralysis", "setting": "GMC101 C. elegans strain", "value": "can also delay GMC101 paralysis"}]}
{"smiles": "CCC(=O)C(=O)O", "note": "[α-KB, α-ketobutyrate]", "values": [{"measurement": "Aβ caused paralysis", "setting": "GMC101 C. elegans strain; about 2 mM, FIG. 2", "value": "can delay Aβ caused paralysis"}]}
{"smiles": "CC(C)C(=O)C(=O)O", "note": "[KIV, α-ketoisovalerate]", "values": [{"measurement": "GMC101 health span", "setting": "GMC101 C. elegans strain; 8 mM, FIG. 6", "value": "can extend GMC101 health span"}]}
{"smiles": "CCCCCCCCOC(=O)C(=O)CCC(=O)O", "note": "[octyl α-KG, octyl α-ketoglutarate]", "values": [{"measurement": "cells remaining alive (viable)", "setting": "[1]", "value": "about 73±2.2%"}]}
{"smiles": "CC(O)CC(=O)O", "note": "(stereo not shown) [3-HB, 3-hydroxybutyrate, reference compound]", "values": [{"measurement": "GMC101 paralysis", "setting": "GMC101 C. elegans strain", "value": "delay in paralysis is not observed"}]}
{"smiles": "O=C(O)CCC(=O)C(=O)O", "note": "[α-KG, α-ketoglutarate]", "values": [{"measurement": "health span of GMC101 C. elegans strain", "setting": "GMC101 C. elegans strain; 2 mM, FIG. 1", "value": "can extend the health span"}, {"measurement": "delay of paralysis compared to vehicle treatment", "setting": "GMC101 C. elegans strain; 8 mM on NGM plates, worms shifted to 25° C.", "value": 22, "unit": "%"}]}
{"smiles": "CC(C)CC(=O)C(=O)O", "note": "[KIC, α-ketoisocaproate]", "values": [{"measurement": "beneficial effect in GMC101 (paralysis)", "setting": "GMC101 C. elegans strain; 16 mM KIC alone", "value": "not observed to exhibit beneficial effects; also recorded: does not exert a beneficial effect"}, {"measurement": "paralysis caused by Aβ", "setting": "GMC101 C. elegans strain", "value": "reduces paralysis caused by Aβ"}]}
{"smiles": "C[C@H](N)C(=O)O", "note": "[alanine, L-alanine]", "values": [{"measurement": "health span of GMC101", "setting": "GMC101 C. elegans strain; 2 mM alanine alone, FIG. 9", "value": "can extend health span of GMC101"}, {"measurement": "health span of GMC101", "setting": "GMC101 C. elegans strain; 4 mM alanine alone, FIG. 10", "value": "can extend health span of GMC101"}, {"measurement": "health span of GMC101", "setting": "GMC101 C. elegans strain; 8 mM alanine alone, FIG. 11", "value": "can extend health span of GMC101"}, {"measurement": "paralysis caused by Aβ", "setting": "GMC101 C. elegans strain", "value": "can reduce paralysis caused by Aβ"}]}
